# From PubChem BioAssay AID743471 (Broad Institute, 2014)
# The source made the active and inactive calls.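 Rule for the calls: active = fitted curve drops past -35% activity change at a concentration up to twice the top valid tested dose; inactive = the rest, including activity in the opposite direction.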
# Test system: not listed separately
# Assay: HepG2 cell cytotoxicity, dose response, cytotoxicity control, luminescence, dry powder, set 12 (AID 743471)
# Conditions: HepG2 viability, ATP luminescence (CellTiter-Glo), 72 h; at 0.8 µM (top of the series)
row,Compound,"activity change, negative = cytotoxicity"
1,CC[C@]1(O)CC2CN(CCc3c([nH]c4ccccc34)[C@@](C(=O)OC)(c3cc4c(cc3OC)N(C=O)[C@H]3[C@@](O)(C(=O)OC)[C@H](OC(C)=O)[C@]5(CC)C=CCN6CC[C@]43[C@@H]65)C2)C1 (stereo partly drawn),-12.1% (inactive)
2,CCN(CCO)CCCOc1ccc2c(Nc3cc(CC(=O)Nc4cccc(F)c4)[nH]n3)ncnc2c1,6.31% (inactive)

# Same assay, conditions: HepG2 viability, ATP luminescence (CellTiter-Glo), 72 h; at 1.35 µM (top of the series)
row,Compound,"activity change, negative = cytotoxicity"
1,COc1cc([C@@H]2c3cc4c(cc3[C@@H](O[C@@H]3O[C@@H]5CO[C@@H](C)O[C@H]5[C@H](O)[C@H]3O)[C@H]3COC(=O)[C@H]23)OCO4)cc(OC)c1O,-5.5% (inactive)

# Same assay, conditions: HepG2 viability, ATP luminescence (CellTiter-Glo), 72 h; at 8 µM (top of the series)
row,Compound,"activity change, negative = cytotoxicity"
1,COc1cccc(S(=O)(=O)N2CC[C@@H]3[C@@H](CO)Nc4ccc(-c5ccc(C#N)cc5)cc4[C@@H]32)c1,25.7% (inactive)
2,N#CC1=C(N)Oc2cc3c(cc2C1c1cccc(Br)c1)OCO3 (stereo not drawn),-4.83% (inactive)

# Same assay, conditions: HepG2 viability, ATP luminescence (CellTiter-Glo), 72 h; at 12 µM (top of the series)
row,Compound,"activity change, negative = cytotoxicity"
1,COc1ccc(OC)c(-c2nnc3n2N=C(c2ccc(OC)c(OC)c2)CS3)c1,-16.5% (inactive)
2,O=C(Cc1ccc(-c2ccc(OCCN3CCOCC3)cc2)cn1)NCc1ccccc1,-10.2% (inactive)
3,COc1ccc(NC(=O)Nc2ccc3c(c2)C(=O)N([C@@H](C)CO)C[C@H](C)[C@H](CN(C)Cc2ccc4c(c2)OCO4)O3)cc1,-13.2% (inactive)
4,C[C@@]1(C(=O)Nc2ccc(F)nc2)CCCN1c1nc(Nc2cc(C3CC3)[nH]n2)c2cccn2n1,-31.6% (inactive)

# Same assay, conditions: HepG2 viability, ATP luminescence (CellTiter-Glo), 72 h; at 26 µM (top of the series)
row,Compound,"activity change, negative = cytotoxicity"
1,N#Cc1ccc(-c2ccc3c(c2)[C@H]2[C@H](CCN2S(=O)(=O)c2ccccc2F)[C@@H](CO)N3)cc1,-18.6% (inactive)
2,COc1cc(C2C(C#N)=C(N)Oc3cc(N(C)C)ccc32)cc2c1OCO2 (stereo not drawn),-11.7% (inactive)
3,N#CC1=C(N)Oc2cc(N)ccc2C1c1cccc(Br)c1 (stereo not drawn),-3.92% (inactive)
4,N#CC1=C(N)Oc2cc(N)ccc2C1c1ccc(Cl)cc1 (stereo not drawn),-15.5% (inactive)
5,COc1cc(Nc2ncc3c(n2)-c2ccc(Cl)cc2C(c2c(F)cccc2OC)=NC3)ccc1C(=O)O,-12.9% (inactive)
6,COc1cccc(C2C(C#N)=C(N)Oc3cc(N)ccc32)c1 (stereo not drawn),-11.2% (inactive)
7,CN(C)c1ccc2c(c1)OC(N)=C(C#N)C2c1cccc(F)c1 (stereo not drawn),-8.25% (inactive)
8,Cc1c([C@H](C(Cl)Cl)[C@H](O)[C@H]2C[C@H](C)C(=O)O2)ccc2c1C(=O)[C@H]1[C@H]2C[C@@H](Br)[C@@]23O[C@@H](CO[C@H]2O)C[C@]13C,-19.2% (inactive)
9,COc1ccc(CNc2nc(N3CCC[C@H]3CO)ncc2C(=O)NCc2ncccn2)cc1Cl,-10.6% (inactive)
10,CN(C(=O)CCCOc1ccc2[nH]c(=O)ccc2c1)C1CCCCC1,-11.4% (inactive)
11,CN1c2ccc(-c3ccc(C#N)cc3)cc2[C@H]2[C@H](CCN2S(=O)(=O)c2ccc(F)cc2)[C@H]1CO,20.9% (inactive)
12,COc1ccc(S(=O)(=O)N2CC[C@@H]3[C@@H](CO)N(C)c4ccc(-c5ccc(F)cc5)cc4[C@@H]32)cc1,-2.59% (inactive)
13,N#CC1=C(N)Oc2cc(N)ccc2C1c1ccc2ccccc2c1 (stereo not drawn),-25.4% (inactive)
14,COc1ccccc1C1C(C#N)=C(N)Oc2cc(N)ccc21 (stereo not drawn),4.04% (inactive)
15,COc1ccc(C2C(C#N)=C(N)Oc3cc(N)ccc32)cc1 (stereo not drawn),-5.71% (inactive)
16,N#CC1=C(N)Oc2cc(OC(=O)c3ccccc3)ccc2C1c1cccc(Br)c1 (stereo not drawn),-8.31% (inactive)
17,COc1ccc(OC)c(-c2nnc3n2N=C(c2ccc(OC)c(OC)c2)CS3)c1,-21.2% (inactive)
18,COc1ccc(C2CNC(=O)C2)cc1OC1CCCC1 (stereo not drawn),15.7% (inactive)
19,COc1ccccc1S(=O)(=O)N1CC[C@@H]2[C@@H](CO)Nc3ccc(-c4ccc(C#N)cc4)cc3[C@@H]21,-11.4% (inactive)

row,Compound,"activity change, negative = cytotoxicity"
1,Cc1ccc(C2C(C#N)=C(N)Oc3cc(N)ccc32)cc1 (stereo not drawn),1.29% (inactive)
2,COc1ccccc1-c1nnc2n1N=C(c1ccc3c(c1)OCO3)CS2,-11.4% (inactive)
3,Cc1ccccc1C1C(C#N)=C(N)Oc2cc(N)ccc21 (stereo not drawn),0.564% (inactive)
4,CN1c2ccc(-c3ccc(C#N)cc3)cc2[C@H]2[C@H](CCN2S(=O)(=O)c2cccc(F)c2)[C@H]1CO,-20.9% (inactive)
5,Cc1cccc(C2C(C#N)=C(N)Oc3cc(N)ccc32)c1 (stereo not drawn),-14.7% (inactive)
6,COC(=O)c1ccc(C2C(C#N)=C(N)Oc3cc(N)ccc32)cc1 (stereo not drawn),6.98% (inactive)
7,C[C@]1(c2nc3c(C(N)=O)cccc3[nH]2)CCCN1,-5.99% (inactive)
8,COc1ccc(S(=O)(=O)N2CC[C@@H]3[C@H](CO)Nc4ccc(-c5ccc(C#N)cc5)cc4[C@@H]32)cc1,-32.1% (inactive)
9,Clc1ccccc1-c1nnc2n1N=C(c1ccc3c(c1)OCO3)CS2,-25.1% (inactive)
10,O=C(Nc1c(Cl)cncc1Cl)c1ccc(OC(F)F)c(OCC2CC2)c1,5.78% (inactive)
11,N#CC1=C(N)Oc2cc(N)ccc2C12C(=O)Nc1ccc(Br)cc12 (stereo not drawn),-10.7% (inactive)
12,Cc1ccc([N+](=O)[O-])cc1S(=O)(=O)N(C)C,-2.85% (inactive)
13,CCCCc1ccc2nc(NC(=O)OC)[nH]c2c1,-18.5% (inactive)
14,CCC(C)(C)C(=O)O[C@H]1C[C@@H](C)C=C2C=C[C@H](C)[C@H](CC[C@@H]3C[C@@H](O)CC(=O)O3)[C@H]21,1.04% (inactive)
15,N#CC1=C(N)Oc2cc(N)ccc2C1c1ccccc1Cl (stereo not drawn),-2.14% (inactive)
16,N#CC1=C(N)Oc2cc(N)ccc2C1c1cccc(F)c1 (stereo not drawn),-15.7% (inactive)
17,Cc1ccc(S(=O)(=O)N2CC[C@@H]3[C@@H](CO)Nc4ccc(-c5ccc(C#N)cc5)cc4[C@@H]32)cc1,-7.83% (inactive)
18,COc1ccc(S(=O)(=O)N(C(C)=O)c2ccc(OC(C)=O)c3ccccc23)cc1[N+](=O)[O-],-15.5% (inactive)

# Same assay, conditions: HepG2 viability, ATP luminescence (CellTiter-Glo), 72 h; at 50 µM (top of the series)
row,Compound,"activity change, negative = cytotoxicity"
1,O=P1(NCCCl)OCCCN1CCCl (stereo not drawn),7.58% (inactive)

# Same assay, conditions: HepG2 viability, ATP luminescence (CellTiter-Glo), 72 h; at 110 µM (top of the series)
row,Compound,"activity change, negative = cytotoxicity"
1,O=C(c1cc(Cc2n[nH]c(=O)c3ccccc23)ccc1F)N1CCN(C(=O)C2CC2)CC1,-17.3% (inactive)

# Test system: HepG2 viability, ATP luminescence (CellTiter-Glo), 72 h
# Assay: as above
# Conditions: not given
row,Compound,AC35 [µM]
1,CC(C)(O)CCc1ccc(O)c2c(=O)c3c(O)c4c(cc3oc12)O[C@H]1OC=C[C@@]41O,0.065
2,COc1ccc(C2=Nn3c(nnc3-c3ccccc3OC)SC2)cc1OC,0.53
3,CC(C)N1c2ccccc2C(c2ccc(F)cc2)C1/C=C/C(O)CC(O)CC(=O)O (stereo not drawn),22.3
4,Clc1ccc(-c2cnc3ccc(-c4ccccc4)cn23)cc1,3.58
5,COc1ccc(C2=Nn3c(nnc3-c3ccccc3F)SC2)cc1OC,20.8
6,COc1ccc(C2=Nn3c(nnc3-c3ccccc3)SC2)cc1OC,20.2
7,COc1ccccc1-c1nnc2n1N=C(c1ccc(O)c(O)c1)CS2,19.2
8,CN1CCN(CCOc2cc(OC3CCOCC3)c3c(Nc4c(Cl)ccc5c4OCO5)ncnc3c2)CC1,25.4
9,COc1ccc(-c2cc(NC(C)=O)c3ncc(-c4ccc(OC)c(OC)c4)n3c2)cc1,17.9
10,COc1ccc(-c2cc(NC=O)c3ncc(-c4ccc(OC)c(OC)c4)n3c2)cc1,3.25
11,COc1ccc(S(=O)(=O)N2CC[C@@H]3[C@@H](CO)Nc4ccc(-c5cccc(C#N)c5)cc4[C@@H]32)cc1,14.9
12,C=C([C@@H](O)[C@@H](C)O)[C@@H](OC)[C@]1(C)Cc2cc3cc(O[C@H]4CC(OC5CC(O)C(O)C(C)O5)C(O)C(C)O4)cc(O)c3c(O)c2C(=O)[C@H]1OC1CC(OC2CC(OC3CC(C)(O)C(O)C(C)O3)C(O)C(C)O2)C(O)C(C)O1 (stereo partly drawn),0.116
13,COc1ccc(-c2ccc3c(c2)[C@H]2[C@H](CCN2S(=O)(=O)c2ccc(OC)cc2)[C@@H](CO)N3C)cc1,21.4
14,COc1ccc(C(=O)CC2(O)C(=O)Nc3c(Cl)ccc(Cl)c32)cc1 (stereo not drawn),8.13
15,Cn1cc(-c2ccncc2)c(-c2ccc(OCc3ccc4ccccc4n3)cc2)n1,12.9
16,CCOC(=O)CCNc1cc(N2CCc3ccccc3CC2)nc(-c2ccccn2)n1,16.5
17,COc1ccc(-c2ccc3c(c2)[C@H]2[C@H](CCN2S(=O)(=O)c2ccc(OC)cc2)[C@@H](CO)N3)cc1,21.2
18,N#CC1=C(N)Oc2cc(O)ccc2C1c1cccc(Br)c1 (stereo not drawn),13.7
19,Nc1ncnc2c1c(-c1cccc(OCc3ccccc3)c1)cn2C1CC(CN2CCCC2)C1 (stereo not drawn),9.61
20,N#Cc1ccc(-c2ccc3c(c2)[C@H]2[C@H](CCN2S(=O)(=O)c2cccc(F)c2)[C@@H](CO)N3)cc1,24.5
21,N#CC1=C(N)Oc2ccc3ccccc3c2C1c1cccc(F)c1 (stereo not drawn),16.4
22,COc1ccc(C2=Nn3c(nnc3-c3ccccc3Cl)SC2)cc1OC,15.5
23,Nc1ccn([C@@H]2O[C@H](CO)[C@H](O)C2O)c(=O)n1 (stereo partly drawn),3.04
24,CC[C@@]1(O)C(=O)OCc2c1cc1n(c2=O)Cc2cc3c(CN(C)C)c(O)ccc3nc2-1,2.2
25,N#CC1=C(N)Oc2cc(N)ccc2C1c1ccccc1 (stereo not drawn),15
26,CCc1c2c(nc3ccc(O)cc13)-c1cc3c(c(=O)n1C2)COC(=O)C3(O)CC (stereo not drawn),0.241
27,COc1ccc(S(=O)(=O)N2CC[C@@H]3[C@@H](CO)Nc4ccc(-c5ccc(C#N)cc5)cc4[C@@H]32)cc1,12.2
28,CC1(C)CC(c2nc(-c3ccc4ccc(-c5ccccc5)nc4c3)c3c(N)nccn23)C1,7.54
29,Cc1cc(Nc2cc(N3CCN(C)CC3)nc(Sc3ccc(NC(=O)C4CC4)cc3)n2)n[nH]1,8.49
30,Cc1nc(Nc2ncc(C(=O)Nc3c(C)cccc3Cl)s2)cc(N2CCN(CCO)CC2)n1,12.5
